The term half-life denotes the time in which the quantity being followed falls by half. The term Ki denotes a measure of affinity in units of concentration, obtained from inhibition or displacement. One may read the IC50 as the concentration needed to halve the response being measured. Higher therefore signals lower potency. By bioavailability is commonly meant the share of a dose that reaches the circulation, judged against a reference dose that is usually intravenous. A higher bioavailability goes with good availability. As usually defined, the clearance is a measure of how efficiently the substance is removed, as volume per time. As a reminder, the Tmax is the time at which the peak concentration occurs. A word on the AUC: it is concentration integrated over time. A high value points to high exposure. Usually Cmax stands for the highest concentration seen after dosing.

Activity calls are given as the source filed them. No cut-off for these calls is given here.

We go through 17 molecules from ChEMBL document CHEMBL1157827, “The synthesis and biological evaluation of quinolyl-piperazinyl piperidines as potent serotonin 5-HT1A antagonists” (J Med Chem, 2010).

Series [1] is described as follows: in vitro. Particulars: rat, liver microsomes. Background: Liver microsomes are a subcellular fraction often used to study metabolism.
Description: Half life in rat liver microsomes at 1 uM after 20 mins
Series [2] deals with T1, 5-hydroxytryptamine receptor 1A (Homo sapiens, UniProt P08908).
T1 sequence (P08908 whole entry): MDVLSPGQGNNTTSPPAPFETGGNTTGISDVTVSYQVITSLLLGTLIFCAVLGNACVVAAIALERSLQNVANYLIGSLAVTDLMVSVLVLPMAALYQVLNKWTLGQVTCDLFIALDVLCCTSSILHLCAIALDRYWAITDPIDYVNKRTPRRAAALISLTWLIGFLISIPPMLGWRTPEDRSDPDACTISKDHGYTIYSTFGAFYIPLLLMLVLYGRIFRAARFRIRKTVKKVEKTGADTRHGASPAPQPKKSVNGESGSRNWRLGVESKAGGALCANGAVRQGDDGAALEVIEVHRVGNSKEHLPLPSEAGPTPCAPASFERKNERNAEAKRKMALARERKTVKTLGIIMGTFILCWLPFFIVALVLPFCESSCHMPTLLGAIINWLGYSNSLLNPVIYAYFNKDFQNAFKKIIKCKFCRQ
Put plainly: biochemical.
Description: Displacement of [3H]8-OH-DPAT from human 5HT1A receptor expressed in CHO cells

For series [3], the target named is T1, 5-hydroxytryptamine receptor 1A.
Series [4] is described as follows: in vitro. Particulars: human, liver microsomes.
Description: Half life in human liver microsomes at 1 uM after 20 mins
The nature of series [5]: Oral bioavailability in Sprague-Dawley rat at 3 mg/kg administered as single dose by LC/MS/MS analysis. Particulars: Sprague-Dawley, in vivo. It is filed as ADME, organism-based.
Series [6] can be described thus: Clearance in Sprague-Dawley rat at 1 mg/kg, iv administered as single dose by LC/MS/MS analysis. Details: dose 1 mg/kg, route intravenous. It is filed as ADME, organism-based. Particulars: in vivo.
Series [7] can be described thus: Tmax in Sprague-Dawley rat at 3 mg/kg, po administered as single dose by LC/MS/MS analysis. It is filed as ADME, organism-based. More on the design: dose 3 mg/kg, route oral. Particulars: in vivo.
In the next series the test system is Plasma. In words: Drug level in Sprague-Dawley rat plasma at 3 mg/kg, po administered as single dose by LC/MS/MS analysis. It is filed as ADME, organism-based. Details: dose 3 mg/kg, route oral. Particulars: in vivo.
Series [8] can be described thus: Ratio of drug level in brain to plasma in Sprague-Dawley rat at 3 mg/kg, po administered as single dose. It is filed as ADME, organism-based. More on the design: dose 3 mg/kg, route oral. Particulars: read-out: BPR.
Series [9] in a line: AUC in Sprague-Dawley rat at 3 mg/kg, po administered as single dose by LC/MS/MS analysis. It is filed as ADME, organism-based, Plasma. Particulars: Sprague-Dawley, plasma. Details: dose 3 mg/kg, route oral.
The nature of series [10]: Cmax in Sprague-Dawley rat at 3 mg/kg, po administered as single dose by LC/MS/MS analysis. Details: dose 3 mg/kg, route oral. It is filed as ADME, organism-based. Particulars: in vivo.
Series [11] is described as follows: Half life in Sprague-Dawley rat at 3 mg/kg, po administered as single dose by LC/MS/MS analysis. More on the design: dose 3 mg/kg, route oral. Particulars: in vivo. It is filed as ADME, organism-based.
Series [12] can be described thus: Volume of distribution at steady state in Sprague-Dawley rat at 1 mg/kg, iv administered as single dose by LC/MS/MS analysis. Details: dose 1 mg/kg, route intravenous. Particulars: in vivo, read-out: Vdss. It is filed as ADME, organism-based.
In series [13] the test system is Rattus norvegicus. Put plainly: Effect on serotonin release in Sprague-Dawley rat cortex at 10 mg/kg, po after 40 mins microdialysis assay. Details: dose 10 mg/kg. It is filed as functional, organism-based.
The test system of series [14] is Rattus norvegicus. In words: Inhibition of 8-OH-DPAT-induced decrease in extracellular serotonin level Sprague-Dawley rat cortex at 10 mg/kg, po administered 30 mins before 8-OH-DPAT challenge. It is filed as functional, organism-based. More on the design: dose 10 mg/kg.

For `COc1cc(N2CCN(C3CCN(c4ccc(F)c5c(C)cc(C)nc45)CC3)CC2)c2ncccc2c1`, the half-life at 20 min, 1 µM in the series “in vitro [1]” and in “in vitro [4]” was 3 min each time. The molecule also displayed a Ki in [2] of 177 nM. In addition, it took 2.8 nM to reach half-maximal inhibition in [3] (IC50).

`COc1cc(N2CCN(C3CCN(c4cccc5cc(C)cnc45)CC3)CC2)c2ncccc2c1`: the half-life at 20 min, 1 µM in the series “in vitro [1]” and in “in vitro [4]” was 2 min throughout. Also, the Ki in series [2] is 0.46 nM. The IC50 in series [3] was found to be 5.9 nM.

Turning to `COc1cc(N2CCN(C3CCN(c4cccc5cc(C(F)(F)F)cnc45)CC3)CC2)c2ncccc2c1`, the half-life at 20 min, 1 µM in the series “in vitro [1]” was 4 min; in “in vitro [4]”, 10 min. Half-maximal inhibition in [3] (IC50) was put at 30 nM.

Molecule `COc1cc(N2CCN(C3CCN(c4cccc5cccnc45)CC3)CC2)c2ncccc2c1` had a bioavailability in series [5] of 27%. The clearance in series [6] stood at 38.7 mL/min/kg. In addition, the values for the half-life at 20 min, 1 µM in the series “in vitro [1]” and in “in vitro [4]” were 2 min and 3 min, respectively. Besides, the time of peak concentration (Tmax) in series [7] was 60 min. The concentration with Plasma worked out at 200 nM. Besides, the Kp in [8] worked out at 2.8. This molecule had an AUC in series [9] of 360 ng·h/mL. Further, the Cmax in series [10] was 130 ng/mL. The same molecule gave a half-life in series [11] of 72 min. In addition, the Vd in series [12] was determined as 2.8 L/kg.

On to `COc1cc(N2CCN(C3CCN(c4c(F)ccc5cccnc45)CC3)CC2)c2ncccc2c1`, for which the half-life at 20 min, 1 µM in the series “in vitro [1]” and in “in vitro [4]” was 3 min each time. The affinity in series [2], expressed as Ki, was 276 nM. In [3], the midpoint of inhibition, the IC50, lay at 331 nM.

In the case of `COc1cc(N2CCN(C3CCN(c4cccc5c(C)cc(C)nc45)CC3)CC2)c2ncccc2c1`, the results for the half-life at 20 min, 1 µM in “in vitro [1]” and in “in vitro [4]” were 4 min and less than 1 min, respectively. In addition, in series [2], the Ki was determined as 0.63 nM. The molecule further had an IC50 in series [3] of 4.8 nM.

`COc1cc(N2CCN(C3CCN(c4cccc5c(C)ccnc45)CC3)CC2)c2ncccc2c1`: the half-life at 20 min, 1 µM in the series “in vitro [1]” and in the series “in vitro [4]” was 2 min in each case. The Ki in series [2] came to 0.61 nM. This molecule gave an IC50 in [3] of 1.4 nM.

As for `COc1cc(N2CCN(C3CCN(c4cccc5ccc(C)nc45)CC3)CC2)c2ncccc2c1`, the values for the half-life at 20 min, 1 µM in the series “in vitro [1]” and in the series “in vitro [4]” were less than 1 min and 3 min, respectively. In series [2], this molecule yielded an inhibition constant (Ki) of 0.54 nM. Also, the 50% inhibitory concentration (IC50) in series [3] was found to be 47 nM.

`COc1cc(N2CCN(C3CCN(c4ccc(F)c5ccc(C(F)(F)F)nc45)CC3)CC2)c2ncccc2c1`: the half-life at 20 min, 1 µM in “in vitro [1]” and in the series “in vitro [4]” was 3 min throughout. This molecule also gave a Ki in series [2] of 3.6 nM. Also, in series [3], half-maximal inhibition (IC50) required 7 nM.

Take `COc1cc(N2CCN(C3CCN(c4cccc5cc(F)cnc45)CC3)CC2)c2ncccc2c1`: the half-life at 20 min, 1 µM in “in vitro [1]” and in “in vitro [4]” was 2 min in each case. The molecule also returned a Ki in series [2] of 0.79 nM. The same molecule gave an IC50 in series [3] of 5.6 nM.

Take `COc1cc(N2CCN(C3CCN(c4ccc(F)c5cc(F)cnc45)CC3)CC2)c2ncccc2c1`: the half-life at 20 min, 1 µM was less than 1 min in the series “in vitro [1]” and 5 min in “in vitro [4]”. In series [2], this molecule registered a Ki of 0.47 nM. The molecule further registered a half-maximal inhibitory concentration (IC50) in series [3] of 20 nM.

As to `COc1cc(N2CCN(C3CCN(c4cc(F)cc5cccnc45)CC3)CC2)c2ncccc2c1`, the half-life at 20 min, 1 µM in the series “in vitro [1]” is 2 min; in the series “in vitro [4]”, 4 min. Also, the Ki in series [2] came out at 3.4 nM. In series [3], the IC50 stood at 46.5 nM.

For the molecule `COc1cc(N2CCN(C3CCN(c4cccc5ccc(C(F)(F)F)nc45)CC3)CC2)c2ncccc2c1`, the values for the half-life at 20 min, 1 µM in the series “in vitro [1]” and in the series “in vitro [4]” were 2 min and 3 min, respectively. This molecule also had a Ki in series [2] of 1.8 nM. The same molecule gave an IC50 in series [3] of 23 nM.

Turning to `COc1cc(N2CCN(C3CCN(c4ccc(F)c5c(OC)cc(C(F)(F)F)nc45)CC3)CC2)c2ncccc2c1`, the result in the series with Rattus norvegicus [13] was inactive. This molecule displayed a bioavailability in series [5] of 60%. Also, the clearance in series [6] was 9 mL/min/kg. The values for the half-life at 20 min, 1 µM in the series “in vitro [1]” and in the series “in vitro [4]” were 12 min and 15 min, respectively. In series [7], the Tmax was found to be 120 min. In addition, the outcome in the series with Rattus norvegicus [14] was Active. Besides, the Kp in series [8] was determined as 0.2. In series [9], this molecule yielded an AUC of 3760 ng·h/mL. This molecule also had a Cmax in series [10] of 417 ng/mL. The molecule further showed a half-life in [11] of 288 min. Besides, the Vd in [12] worked out at 2.5 L/kg.

Regarding `COc1cc(N2CCN(C3CCN(c4cccc5c(OC)cc(C(F)(F)F)nc45)CC3)CC2)c2ncccc2c1`, the half-life at 20 min, 1 µM was found to be 4 min in “in vitro [1]” and 13 min in the series “in vitro [4]”. In series [2], this molecule registered a Ki of 2.1 nM. This molecule also gave an IC50 in [3] of 30 nM.

For the molecule `COc1cc(N2CCN(C3CCN(c4cc(Br)cc5cccnc45)CC3)CC2)c2ncccc2c1`, the half-life at 20 min, 1 µM in “in vitro [1]” and in “in vitro [4]” was 2 min in each case. In [2], this molecule had a Ki of 0.61 nM. The same molecule displayed an IC50 in series [3] of 10 nM.

As for `COc1cc(N2CCN(C3CCN(c4ccc(F)c5cc(C(F)(F)F)cnc45)CC3)CC2)c2ncccc2c1`, the half-life at 20 min, 1 µM in the series “in vitro [1]” was 9 min; in “in vitro [4]” it was 27 min. Moreover, the Ki in series [2] came to 0.87 nM. The same molecule gave an IC50 in series [3] of 15 nM.
